Laboratory results taken from paper PMC10220285, “Development of an assay pipeline for the discovery of novel small molecule inhibitors of human glutathione peroxidases GPX1 and GPX4” (Redox Biology, 2023).
Like-named read-outs stand apart in the source and are kept apart here.

Assays:
Assay type in all cases: biochemical
[1] = target: T1, GPX1 (Homo sapiens, UniProt P07203); test: GR-coupled GPX1 activity assay (NADPH fluorescence, CHP substrate); conditions: for inhibition of GPX1: Fig. 9 pan-selenoprotein inhibitors
T1 construct: made in house; host or cells: E. coli
T1 sequence (P07203 1-203): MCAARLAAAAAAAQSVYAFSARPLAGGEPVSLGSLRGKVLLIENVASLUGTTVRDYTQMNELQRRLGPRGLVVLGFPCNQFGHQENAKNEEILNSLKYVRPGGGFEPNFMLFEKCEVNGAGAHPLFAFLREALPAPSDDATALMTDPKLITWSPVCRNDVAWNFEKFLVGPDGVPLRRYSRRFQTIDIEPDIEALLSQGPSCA

[2] = target: T2, human GPX2 (Homo sapiens, UniProt P18283); test: GPX2 activity assay (follow-up isoform specificity); conditions: for inhibition of GPX2: Fig. 9 pan-selenoprotein inhibitors
T2 construct: made in house
T2 sequence (P18283 1-190): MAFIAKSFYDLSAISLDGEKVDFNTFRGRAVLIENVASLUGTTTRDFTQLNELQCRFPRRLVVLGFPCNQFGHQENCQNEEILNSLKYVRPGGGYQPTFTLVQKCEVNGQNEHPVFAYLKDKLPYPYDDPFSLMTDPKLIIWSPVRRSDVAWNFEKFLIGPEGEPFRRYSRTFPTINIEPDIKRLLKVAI
Protocol: (§1) The compound plates were prepared as described previously. Purified recombinant human GPX1, GPX2, GPX4, GR, and TXNRD1 were produced and purified as previously reported [[48], [49], [50]]. As production of GPX2 was not optimized at the onset of screening, only GPX1 and GPX4 underwent library screening, and GPX2 was used as a follow-up.
(§2) Follow-up and orthogonal assays were run in quadruplicate unless otherwise stated. Assay schemes are illustrated in Fig. 1.
Previous work has shown similarities in the substrate specificities of GPX1 and GPX2, and a more unique substrate profile of GPX4 [8].
The GPX2 isoform of human selenoprotein GPXs is found in epithelial cells and has similar substrate specificity with GPX1, but not as much with GPX4 [8]. Additionally, GPX1 and GPX2 both form homotetramers and share similarities in structural homology, although GPX2 has a much slower turnover rate.

[3] = target: T3, human TXNRD1 (Homo sapiens, UniProt Q16881); test: Thioredoxin reductase 1 (TXNRD1) inhibition assay (selenite reduction); conditions: for inhibition of TXNRD1: Fig. 9 pan-selenoprotein inhibitors
T3 construct: made in house
T3 sequence (Q16881 1-499 isoform Q16881-5): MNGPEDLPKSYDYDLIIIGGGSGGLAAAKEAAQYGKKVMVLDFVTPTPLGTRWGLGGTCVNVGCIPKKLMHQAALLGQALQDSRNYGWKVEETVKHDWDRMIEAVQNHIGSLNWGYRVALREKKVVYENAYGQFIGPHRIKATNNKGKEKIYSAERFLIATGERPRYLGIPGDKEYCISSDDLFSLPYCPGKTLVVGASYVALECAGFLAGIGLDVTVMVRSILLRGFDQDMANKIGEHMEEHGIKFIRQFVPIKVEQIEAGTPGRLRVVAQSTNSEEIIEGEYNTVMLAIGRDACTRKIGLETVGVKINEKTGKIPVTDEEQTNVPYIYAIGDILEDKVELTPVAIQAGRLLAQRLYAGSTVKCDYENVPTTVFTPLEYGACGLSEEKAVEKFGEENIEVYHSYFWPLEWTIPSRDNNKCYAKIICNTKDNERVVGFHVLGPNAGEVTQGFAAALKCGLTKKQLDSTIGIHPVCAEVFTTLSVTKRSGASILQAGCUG
Protocol: as §1, §2
TXNRD1 activity was assessed using a modified 1536-well TXNRD1 inhibition assay, based upon TXNRD1-catalyzed selenite reduction as previously described (Fig. 1D). […] TE buffer was dispensed into column 1 and 2 as a no-enzyme control. Finally, 1 μL of sodium selenite in TE buffer was dispensed into each well for final concentrations of 90 nM hTXNRD1, 0.4 mM NADPH, and 0.4 mM sodium selenite. The plate was read in a Viewlux multimodal detector in kinetic mode and fluorescence at 340 nm/450 nm was measured every minute for 8 min.
Percent activity was determined by first calculating delta RFU (decrease in fluorescence between t = 0 and t = 20/30 min in primary GPX, GR counter-screen, and TXNRD1 assays, or increase in fluorescence between t = 0 and t = 20 min in the Monobromobimane GPX endpoint assay), and normalizing enzyme activity using median delta RFU values for DMSO-treated enzyme control, and DMSO-treated no-enzyme controls.
Compound inhibitory activity in the qHTS assays was determined by plotting dose-response data for each sample and fitting with a four-parameter logistic fit to assess IC50 values, efficacy (maximal response), and AUC (area under the curve), as previously described. Hits were classified by the quality of the concentration-response curves (CRC). Curve classes −1.1 and −1.2 being the highest-confidence actives with complete CRCs and classes −2.1 and −2.2 being lower-confidence actives with incomplete CRCs.

[4] = listed as 2,3-dimercaptopropanesulfonic acid

Q: O=S(=O)(O)CC(S)CS (stereo not shown) [2,3-dimercaptopropanesulfonate] was tested. Which “inhibition of GPX1” value [1] did it give?
A: inhibited all tested selenoproteins

Q: And the “inhibition of GPX1” value [1, 4]?
A: inhibited all selenoproteins

Q: What about the “inhibition of GPX2” value [2] of the same compound?
A: inhibited all tested selenoproteins

Q: What about the “inhibition of GPX2” value [2, 4] of the same compound?
A: inhibited all selenoproteins

Q: What about the “inhibition of TXNRD1” value [3] of the same compound?
A: inhibited all tested selenoproteins

Q: And the “inhibition of TXNRD1” value [3, 4]?
A: inhibited all selenoproteins

Q: Which results are given for CC(=O)OC[C@H]1O[C@@H]([S-])[C@H](OC(C)=O)[C@@H](OC(C)=O)[C@@H]1OC(C)=O.CCP(CC)CC.[Au+] [Auranofin]?
A: IC50 ([1]; IC50 of resulting CRC, Table 2, read-out: IC50 GPx1): 4.6 µM; IC50 ([1]; assay validation, Fig. 2E, read-out: IC50, prior art GPX1 inhibitor activities in optimized assay): 4.84 µM; IC50 ([1]; compound present in the screening libraries (qHTS), read-out: IC50 GPX1, primary library screen): 2.26 µM; IC50 ([1]; initial tests comparing GR-coupled and mBBr assay formats, read-out: IC50 in the GR-coupled assay): 1.94 µM; hit status in GPX1 qHTS ([1]; primary library screen): high-quality active hit for GPX1 in all three; IC50 ([2]; IC50 of resulting CRC, Table 2): 2.1 µM; IC50 ([3]; IC50 of resulting CRC, Table 2, read-out: IC50 TrxR1): 19 µM
